{
  "source": "patent US20090325219A1",
  "about": "“DEVICE, SYSTEM AND ASSAY FOR MEASURING CELL MOTILITY” (The Queen's University of Belfast, priority 2006, published 2009)",
  "assay_type_in_all_cases": "cell-based, rat",
  "key": {"AY-27 cells [1]": {"tested_on": "AY-27 cells", "assay": "Conventional scratch wound assay", "details": "compared to SdM and Mock-TGF", "method": "Sub-confluent AY-27 cells were detached and 5×10^6 were seeded into 6-well tissue culture plates. The cells were grown to 100% confluency before treatment with Mock-TGF, SdM or 3 ng/ml TGF-β1 in duplicates for 24 h and 48 h. An in vitro “scratch wound” was created by scraping the confluent cell monolayer with a sterile pipette tip to make an approximate 1.0 mm gap. Three fixed points were marked in each well and phase-contrast images were captured at these same points over the 24 h and 48 h treatment course. The area of cells that had migrated beyond the ‘wound’ was estimated by superimposing a 5 mm×5 mm grid over the ‘wound’, and this was expressed as percentage when divided with the area of the ‘wound’.\n(§1) FIG. 10 details results of a conventional motility assay (A) and the Matrigel invasion assay (B). […] Cells were treated with Mock-TGF (i), SdM (ii) or 3 ng.ml TGF-β1 (iii) and images were captured after 24 h and 48 h. The percentage of wound healing was calculated by counting the number of boxes at least half covered by cells in the 5 mm×5 mm grid-rule (A). […] Cells were treated with Mock-TGF (i), SdM (ii) or TGF-β1 (iii) and cells that passed successfully through the matrigel membrane after 24 h and after 48 h were Giemsa stained and enumerated."}, "AY-27 cells [2]": {"tested_on": "AY-27 cells", "assay": "Assay of present invention (motility towards agarose chemo-attractant matrix)", "details": "compared to Mock-TGF and SdM", "method": "Ten millimetre coverslips were seeded with AY-27 cells at a density of 5×10^5 and grown to 100% confluency in 12-well plates. The AY-27 cells at 100% confluency on 10 mm coverslips were removed (A) and washed vigorously using SdM medium (B).\nIn a separate 12-well culture plate, 1 ml of heated 2% agarose matrix consisting of 50% FCS and 50% supplemented RPMI thoroughly mixed was pipetted into each well, and allowed to cool and solidify (C).\nA sterile 12 mm diameter metal ring was then used to cut out a circular area in the centre of the matrix (D & E) to provide a cell receiving zone and also to expose a portion of the supporting substrate to form the bridging portion between the cell receiving zone and the agent receiving matrix.\nAY-27 cells on the 10 mm coverslip were then placed into the empty tissue receiving zone from which the agarose had been removed (F) such that the sample is spaced apart from and surrounded by the agarose (chemo-attractant agent receiving matrix).\nAn indentation provided in the cell receiving zone, allows reproducible locating of the coverslip including the cells to be tested in the cell receiving zone. The indentation is of suitable depth such that the top surface of the located slide is substantially flush with surrounding surface of the receiving surface. […]"}, "AY-27 cells [3]": {"tested_on": "AY-27 cells", "assay": "Conventional Matrigel invasion assay", "details": "24 h and 48 h, compared to Mock-TGF and SdM, p<0.05 Student's t-test", "method": "FCS (10%) in 0.75 ml RPMI-1640 acted as the chemo-attractant. This was added to the lower compartment of 24-well BioCoat Matrigel invasion chambers (Becton Dickinson Labware, Bedford, Mass.) with an 8-μm pore polycarbonate filter coated with Matrigel. In the upper compartment, 8×10^5 cells/well in SdM were placed in triplicate wells and incubated for 24 h and 48 h at 37° C. in a humidified incubator with 5% CO2. After incubation, the cells that had passed through the filter into the lower wells were stained with Speedy-Diff Rapid Giemsa (Clin-Tech Ltd, Essex, UK. #61078, #61079, #61080) and counted by assessing 10 random high power fields images using ×400 magnification on a Leitz Labrodux K (Germany) light microscope.\nas §1"}},
  "note": "“Also recorded” adds a separate entry of the source.",
  "data": [
    {"substance": "TGF-β1: Recombinant human TGF-β1 (R&D systems), a known promoter to tumour progression", "values": [
      {"measurement": "motility / wound closure", "setting": "AY-27 cells [1]; 3 ng/ml TGF-β1, 24 h", "value": "earlier wound closure"},
      {"measurement": "motility / wound closure", "setting": "AY-27 cells [1]; 3 ng/ml TGF-β1, 48 h", "value": "this effect did not persist"},
      {"measurement": "numbers of migrating cells (grid boxes covered)", "setting": "AY-27 cells [2]; 3 ng/ml TGF-β1, 24 h", "value": "no significant differences"},
      {"measurement": "numbers of migrating cells (grid boxes covered)", "setting": "AY-27 cells [2]; 3 ng/ml TGF-β1, 48 h, p<0.05 student t-test", "value": "significantly more cells had migrated; also recorded: significantly greater numbers"},
      {"measurement": "cells migrated across the matrigel", "setting": "AY-27 cells [3]", "value": "Significantly more cells were present in the membrane; also recorded: significantly more TGF-β1 treated cells migrated across the matrigel"}
    ]}
  ]
}
